Values after ≈ are worked out from the molar mass of the structure shown.
What was measured:
ATCC 25922 ECO.35 = assay: MIC, CLSI broth microdilution, Gram-negative clinical isolates; format: cell-based, Escherichia coli
Protocol: (§1) Plates were incubated at 35° C. for 24 h.
(§2) The activity of paenibacterin was also tested against clinical isolates of the following Gram-negative bacterial strains: four strains of the species Pseudomonas aeruginosa (PAE), three strains of the species Acinetobacter baumannii (ABA), two strains of the species Escherichia coli (ECO), and four strains of the species Klebsiella pneumoniae (KPN). Particularly, the strains of Gram-negative bacteria included polymyxin B-resistant (PMB-R) and polymyxin B-sensitive (PMB-S) strains of each above listed species. The MICs were determined using the above described CLSI broth microdilution method, in which the method was performed with both non-binding surface coated (NBS) and polystyrene (PS) 96-well plates (Tables 11 and 12, respectively). The MICs were generally lower in the NBS 96-well plates as compared to the PS 96-well plates.

ECO.2276 = assay: as above; format: cell-based, Escherichia coli
Protocol: as §1, §2

KPN.2317 = assay: as above; format: cell-based, Klebsiella pneumoniae
Protocol: as §1, §2

KPN.674 = assay: as above; format: cell-based, Klebsiella pneumoniae
Protocol: as §1, §2

PMB-S, KPN.2461 = assay: as above; format: cell-based, Klebsiella pneumoniae
Protocol: as §1, §2

PMB-R, KPN.2463 = assay: as above; format: cell-based, Klebsiella pneumoniae
Protocol: as §1, §2

ABA.2315 = assay: as above; format: cell-based, Acinetobacter baumannii
Protocol: as §1, §2

ABA.2232 = assay: as above; format: cell-based, Acinetobacter baumannii
Protocol: as §1, §2

ABA.1570 = assay: as above; format: cell-based, Acinetobacter baumannii
Protocol: as §1, §2

PAE.44 = assay: as above; format: cell-based, Pseudomonas aeruginosa
Protocol: as §1, §2

PAE.999 = assay: as above; format: cell-based, Pseudomonas aeruginosa
Protocol: as §1, §2

PAE.2325 = assay: as above; format: cell-based, Pseudomonas aeruginosa
Protocol: as §1, §2

PAE.2281 = assay: as above; format: cell-based, Pseudomonas aeruginosa
Protocol: as §1, §2

[1] = test system: DR-MSSA from SAU.42 SAU.278; assay: microbe, parasite or virus in culture; conditions: Staphylococcus aureus, MSSA, read-out: Minimum inhibitory concentration (MIC)
Protocol: (§3) The activity of paenibacterin against several strains of Gram-positive and Gram-negative foodborne pathogens is summarized in Table 10. The data is reported as minimum inhibitory concentrations (MIC) as an average of three replicates for paenibacterin against the various listed bacterial strains. […] MICs were determined according to the CLSI broth microdilution method (see, Clinical and Laboratory Standards Institute (CLSI). 2009. Methods for dilution antimicrobial susceptibility tests for bacteria that grow aerobically; approved standard. […]. CLSI, Wayne, Pa.). Briefly, HPLC-purified paenibacterin was dissolved in methanol and diluted to appropriate concentration with cation-adjusted Mueller-Hinton II broth (Difco). Aliquots (25 μl) of serially-diluted paenibacterin was dispensed into wells of a 96-well plate; an equal amount of 1/10 diluted overnight bacterial culture was added to wells. Plates were incubated at 35° C. for 24 h. Cell growth after incubation was examined and determined using a microtiter plate reader at 600 nm. Concentration of paenibacterin is determined based on a molecular weight of 1604 Da.
(§4) The activity of paenibacterin was further tested against clinical isolates of the following Gram-positive bacteria: methicillin-sensitive Staphylococcus aureus (MSSA), methicillin-resistant S. aureus (MRSA), vancomycin-sensitive Enterococcus faecalis, vancomycin-resistant E. faecalis (VRE), Streptococcus pneumoniae, and laboratory derived daptomycin-resistant (DR) MSSA, MRSA, and VRE strains. The MICs were determined using the above described CLSI broth microdilution method, in which the method was performed with non-binding surface coated (NBS) 96-well plates.

MRSA ATCC 43300 SAU.399 = assay: microbe, parasite or virus in culture; conditions: Staphylococcus aureus, ATCC43300|MRSA, read-out: Minimum inhibitory concentration (MIC)
Protocol: as §3, §4

WT ATCC 29212 EFS.43 = assay: microbe, parasite or virus in culture; conditions: Enterococcus faecalis, ATCC29212, read-out: Minimum inhibitory concentration (MIC)
Protocol: as §3, §4

[2] = test system: DR-VRE from EFS.807 EFS.2731; assay: microbe, parasite or virus in culture; conditions: Enterococcus faecalis, VRE, read-out: Minimum inhibitory concentration (MIC)
Protocol: as §3, §4

[3] = test system: DR-MRSA from MW2 SP SAU.1616; assay: microbe, parasite or virus in culture; conditions: Staphylococcus aureus, MRSA, read-out: Minimum inhibitory concentration (MIC)
Protocol: as §3, §4

[4] = test system: DS-VRE ATCC 700802 EFS.807; assay: microbe, parasite or virus in culture; conditions: Enterococcus faecalis, ATCC700802|VRE, read-out: Minimum inhibitory concentration (MIC)
Protocol: as §3, §4

WT ATCC 49619 SPN.31 = assay: microbe, parasite or virus in culture; conditions: Streptococcus pneumoniae, ATCC49619, read-out: Minimum inhibitory concentration (MIC)
Protocol: as §3, §4

MSSA ATCC 29213 SAU.42 = assay: microbe, parasite or virus in culture; conditions: Staphylococcus aureus, ATCC29213|MSSA, read-out: Minimum inhibitory concentration (MIC)
Protocol: as §3, §4

Q: Which results are given for polymyxin B sulfate?
A: Minimum inhibitory concentration (MIC) (ATCC 25922 ECO.35; ECO.35 (ATCC 25922), NBS 96-well plates): 0.06 µg/mL; Minimum inhibitory concentration (MIC) (ATCC 25922 ECO.35; ECO.35, PS 96-well plates): 2 µg/mL; Minimum inhibitory concentration (MIC) (ECO.2276; NBS 96-well plates): 8 µg/mL; Minimum inhibitory concentration (MIC) (ECO.2276; PS 96-well plates): 8 µg/mL; Minimum inhibitory concentration (MIC) (KPN.2317; NBS 96-well plates): >64 µg/mL; Minimum inhibitory concentration (MIC) (KPN.2317; PS 96-well plates): >64 µg/mL; Minimum inhibitory concentration (MIC) (KPN.674; NBS 96-well plates): 0.125 µg/mL; Minimum inhibitory concentration (MIC) (KPN.674; PS 96-well plates): 2 µg/mL; Minimum inhibitory concentration (MIC) (PMB-S, KPN.2461; KPN.2461 (PMB-S), NBS 96-well plates): 0.06 to 0.13 µg/mL; Minimum inhibitory concentration (MIC) (PMB-S, KPN.2461; KPN.2461, PS 96-well plates): 2 µg/mL; Minimum inhibitory concentration (MIC) (PMB-R, KPN.2463; KPN.2463 (PMB-R), NBS 96-well plates): 2 to 8 µg/mL; Minimum inhibitory concentration (MIC) (PMB-R, KPN.2463; KPN.2463, PS 96-well plates): 32 µg/mL; Minimum inhibitory concentration (MIC) (ABA.2315; NBS 96-well plates): 8 µg/mL; Minimum inhibitory concentration (MIC) (ABA.2315; PS 96-well plates): 64 µg/mL; Minimum inhibitory concentration (MIC) (ABA.2232; NBS 96-well plates): 0.06 µg/mL; Minimum inhibitory concentration (MIC) (ABA.2232; PS 96-well plates): 2 µg/mL; Minimum inhibitory concentration (MIC) (ABA.1570; NBS 96-well plates): 0.0625 µg/mL; Minimum inhibitory concentration (MIC) (ABA.1570; NBS 96-well plates, listed as polymyxin B): 0.06 µg/mL; Minimum inhibitory concentration (MIC) (ABA.1570; PS 96-well plates): 2 µg/mL; Minimum inhibitory concentration (MIC) (PAE.44; non-binding surface coated (NBS) 96-well plates): 0.125 µg/mL; Minimum inhibitory concentration (MIC) (PAE.44; polystyrene (PS) 96-well plates): 2 µg/mL; Minimum inhibitory concentration (MIC) (PAE.999; NBS 96-well plates): 0.25 µg/mL; Minimum inhibitory concentration (MIC) (PAE.999; PS 96-well plates): 2 µg/mL; Minimum inhibitory concentration (MIC) (PAE.2325; NBS 96-well plates): 0.25 µg/mL; Minimum inhibitory concentration (MIC) (PAE.2325; PS 96-well plates): 2 µg/mL; Minimum inhibitory concentration (MIC) (PAE.2281; NBS 96-well plates): 16 µg/mL; Minimum inhibitory concentration (MIC) (PAE.2281; PS 96-well plates): 16 µg/mL

Q: How did the MIC [1] turn out when `CN[C@H](CC(C)C)C(=O)N[C@H]1C(=O)N[C@@H](CC(N)=O)C(=O)N[C@H]2C(=O)N[C@H]3C(=O)N[C@H](C(=O)N[C@H](C(=O)O)c4cc(O)cc(O)c4-c4cc3ccc4O)[C@H](O)c3ccc(c(Cl)c3)Oc3cc2cc(c3O[C@@H]2O[C@H](CO)[C@@H](O)[C@H](O)[C@H]2O[C@H]2C[C@](C)(N)[C@H](O)[C@H](C)O2)Oc2ccc(cc2Cl)[C@H]1O` [vancomycin] was run?
A: 2 µg/mL (≈ 1.38 µM)

Q: What about the MIC (MRSA ATCC 43300 SAU.399) of the same compound?
A: 2 µg/mL (≈ 1.38 µM)

Q: What about the MIC (WT ATCC 29212 EFS.43) of the same compound?
A: 2 to 4 µg/mL (≈ 1.38 to 2.76 µM)

Q: What about the MIC [2] of the same compound?
A: 32 µg/mL (≈ 22.1 µM)

Q: What about the MIC [3] of the same compound?
A: 2 µg/mL (≈ 1.38 µM)

Q: And the MIC [4]?
A: 16 to 32 µg/mL (≈ 11 to 22.1 µM)

Q: What about the MIC (WT ATCC 49619 SPN.31) of the same compound?
A: 16 µg/mL (≈ 11 µM)

Q: And the MIC (MSSA ATCC 29213 SAU.42)?
A: 1 µg/mL (≈ 0.69 µM)
